# Data published in US9174994B2, “Enhanced treatment regimens using mTor inhibitors” (INTELLIKINE LLC, priority 2011, dated 2015).
# Experiment: Phase I clinical trial: treatment-emergent adverse events (patients, n (%)), dose limiting toxicity, MTD
# Format: in vivo
# Description: Safety, maximum tolerated dose (MTD), pharmacokinetics (PK) and preliminary antitumor activity were evaluated.
# Pharmacodynamic (PD) endpoints were evaluated in surrogate (peripheral blood cells [PBCs], skin) and tumor tissues for the phosphorylation of TORC1-dependent markers (4EBP1/S6), and TORC2-dependent markers (AKT/PRAS40).
structure (smiles),measurement,setting,value
CC(C)n1nc(-c2ccc3oc(N)nc3c2)c2c(N)ncnc21 [compound A],Oral discomfort,7 mg/week (N = 3),0 (0%)
same,Patients Reporting at Least One Related TEAE,7 mg/week (N = 3),3
same,Pruritus,7 mg/week (N = 3),0 (0%)
same,RASH,7 mg/week (N = 3),0 (0%)
same,Rash,7 mg/week (N = 3),0 (0%)
same,Vomiting,7 mg/week (N = 3),2 (67%)
same,WEAKNESS,7 mg/week (N = 3),0 (0%)
same,Alanine aminotransferase increased,"9 mg/3 W, QDx3d QW (N = 5)",0 (0%)
same,Asthenia,"9 mg/3 W, QDx3d QW (N = 5)",1 (20%)
same,Catheter site inflammation,"9 mg/3 W, QDx3d QW (N = 5)",0 (0%)
same,Catheter site pain,"9 mg/3 W, QDx3d QW (N = 5)",0 (0%)
same,Decreased appetite,"9 mg/3 W, QDx3d QW (N = 5)",0 (0%)
same,Diarrhoea,"9 mg/3 W, QDx3d QW (N = 5)",1 (20%)
same,Dry skin,"9 mg/3 W, QDx3d QW (N = 5)",1 (20%)
same,Dysgeusia,"9 mg/3 W, QDx3d QW (N = 5)",0 (0%)
same,Dyspnoea,"9 mg/3 W, QDx3d QW (N = 5)",1 (20%)
same,Fatigue,"9 mg/3 W, QDx3d QW (N = 5)",0 (0%)
same,Headache,"9 mg/3 W, QDx3d QW (N = 5)",0 (0%)
same,Hyperbilirubinaemia,"9 mg/3 W, QDx3d QW (N = 5)",0 (0%)
same,Hypercholesterolaemia,"9 mg/3 W, QDx3d QW (N = 5)",1 (20%)
same,Hyperglycaemia,"9 mg/3 W, QDx3d QW (N = 5)",1 (20%)
same,Hypertransaminasaemia,"9 mg/3 W, QDx3d QW (N = 5)",1 (20%)
same,Hypertriglyceridaemia,"9 mg/3 W, QDx3d QW (N = 5)",1 (20%)
same,Hypomagnesaemia,"9 mg/3 W, QDx3d QW (N = 5)",1 (20%)
same,Hypotension,"9 mg/3 W, QDx3d QW (N = 5)",1 (20%)
same,Low fever,"9 mg/3 W, QDx3d QW (N = 5)",0 (0%)
same,Lymphopenia,"9 mg/3 W, QDx3d QW (N = 5)",1 (20%)
same,Mucosal inflammation,"9 mg/3 W, QDx3d QW (N = 5)",2 (40%)
same,Nausea,"9 mg/3 W, QDx3d QW (N = 5)",2 (40%)
same,Palmar-plantar erythrodysaesthesia syndrome,"9 mg/3 W, QDx3d QW (N = 5)",1 (20%)
same,Patients Reporting at Least One Related TEAE,"9 mg/3 W, QDx3d QW (N = 5)",4 (80%)
same,Platelet count decreased,"9 mg/3 W, QDx3d QW (N = 5)",0 (0%)
same,Pruritus,"9 mg/3 W, QDx3d QW (N = 5)",2 (40%)
same,Pyrexia,"9 mg/3 W, QDx3d QW (N = 5)",0 (0%)
same,Rash,"9 mg/3 W, QDx3d QW (N = 5)",3 (60%)
same,Rash macular,"9 mg/3 W, QDx3d QW (N = 5)",0 (0%)
same,Urinary tract infection,"9 mg/3 W, QDx3d QW (N = 5)",1 (20%)
same,Vomiting,"9 mg/3 W, QDx3d QW (N = 5)",2 (40%)
same,Asthenia,"9 mg/3 W, QDx3d QW (N = 5), 2nd Asthenia line",0 (0%)
same,Diarrhoea,"10 mg/5 W, QDx5d QW (N = 3)",0 (0%)
same,Patients Reporting at Least One Related TEAE,"10 mg/5 W, QDx5d QW (N = 3)",1 (33%)
same,Rash,"10 mg/5 W, QDx5d QW (N = 3)",0 (0%)
same,Urine tract infection,"10 mg/5 W, QDx5d QW (N = 3)",1 (33%)
same,Vomiting,"10 mg/5 W, QDx5d QW (N = 3)",1 (33%)
same,Nausea,"10 mg/5 W, QDx5d QW (N = 3), 1st Nausea line",1 (33%)
same,Nausea,"10 mg/5 W, QDx5d QW (N = 3), 2nd Nausea line",0 (0%)
same,ASTHENIA,10 mg/week (N = 3),0 (0%)
same,ATHENIA,10 mg/week (N = 3),0 (0%)
same,Alanine aminotransferase increased,10 mg/week (N = 3),0 (0%)
same,Aspartate aminotransferase increased,10 mg/week (N = 3),1 (33%)
same,Asthenia,10 mg/week (N = 3),0 (0%)
same,Blood creatinine increased,10 mg/week (N = 3),0 (0%)
same,Blood triglycerides increased,10 mg/week (N = 3),0 (0%)
same,DIARRHEA,10 mg/week (N = 3),0 (0%)
same,Decreased appetite,10 mg/week (N = 3),0 (0%)
same,Diarrhoea,10 mg/week (N = 3),0 (0%)
same,Dysgeusia,10 mg/week (N = 3),0 (0%)
same,Dyspepsia,10 mg/week (N = 3),0 (0%)
same,HYPERGLYCEMIA,10 mg/week (N = 3),0 (0%)
same,Hyperglycaemia,10 mg/week (N = 3),1 (33%)
same,Lymphopenia,10 mg/week (N = 3),0 (0%)
same,Malaise,10 mg/week (N = 3),0 (0%)
same,Mucosal inflammation,10 mg/week (N = 3),0(0%)
same,Muscle spasms,10 mg/week (N = 3),0 (0%)
same,Nausea,10 mg/week (N = 3),2 (67%)
same,Oral discomfort,10 mg/week (N = 3),1 (33%)
same,Patients Reporting at Least One Related TEAE,10 mg/week (N = 3),2 (67%)
same,Pruritus,10 mg/week (N = 3),0 (0%)
same,RASH,10 mg/week (N = 3),0 (0%)
same,Rash,10 mg/week (N = 3),0 (0%)
same,Vomiting,10 mg/week (N = 3),1 (33%)
same,WEAKNESS,10 mg/week (N = 3),0 (0%)
same,Alanine aminotransferase increased,"12 mg/3 W, QDx3d QW (N = 3)",0 (0%)
same,Asthenia,"12 mg/3 W, QDx3d QW (N = 3)",1 (33%)
same,Catheter site inflammation,"12 mg/3 W, QDx3d QW (N = 3)",1 (33%)
same,Catheter site pain,"12 mg/3 W, QDx3d QW (N = 3)",1 (33%)
same,Decreased appetite,"12 mg/3 W, QDx3d QW (N = 3)",1 (33%)
same,Diarrhoea,"12 mg/3 W, QDx3d QW (N = 3)",0 (0%)
same,Dry skin,"12 mg/3 W, QDx3d QW (N = 3)",0 (0%)
same,Dysgeusia,"12 mg/3 W, QDx3d QW (N = 3)",1 (33%)
same,Dyspnoea,"12 mg/3 W, QDx3d QW (N = 3)",0 (0%)
same,Fatigue,"12 mg/3 W, QDx3d QW (N = 3)",0 (0%)
same,Headache,"12 mg/3 W, QDx3d QW (N = 3)",0 (0%)
same,Hyperbilirubinaemia,"12 mg/3 W, QDx3d QW (N = 3)",0 (0%)
same,Hypercholesterolaemia,"12 mg/3 W, QDx3d QW (N = 3)",0 (0%)
same,Hyperglycaemia,"12 mg/3 W, QDx3d QW (N = 3)",2 (67%)
same,Hypertransaminasaemia,"12 mg/3 W, QDx3d QW (N = 3)",0 (0%)
same,Hypertriglyceridaemia,"12 mg/3 W, QDx3d QW (N = 3)",0 (0%)
same,Hypomagnesaemia,"12 mg/3 W, QDx3d QW (N = 3)",0 (0%)
same,Hypotension,"12 mg/3 W, QDx3d QW (N = 3)",0 (0%)
same,Low fever,"12 mg/3 W, QDx3d QW (N = 3)",0 (0%)
same,Lymphopenia,"12 mg/3 W, QDx3d QW (N = 3)",0 (0%)
same,Mucosal inflammation,"12 mg/3 W, QDx3d QW (N = 3)",1 (33%)
same,Nausea,"12 mg/3 W, QDx3d QW (N = 3)",2 (67%)
same,Palmar-plantar erythrodysaesthesia syndrome,"12 mg/3 W, QDx3d QW (N = 3)",0 (0%)
same,Patients Reporting at Least One Related TEAE,"12 mg/3 W, QDx3d QW (N = 3)",2 (67%)
same,Platelet count decreased,"12 mg/3 W, QDx3d QW (N = 3)",0 (0%)
same,Pruritus,"12 mg/3 W, QDx3d QW (N = 3)",1 (33%)
same,Pyrexia,"12 mg/3 W, QDx3d QW (N = 3)",0 (0%)
same,Rash,"12 mg/3 W, QDx3d QW (N = 3)",0 (0%)
same,Rash macular,"12 mg/3 W, QDx3d QW (N = 3)",1 (33%)
same,Urinary tract infection,"12 mg/3 W, QDx3d QW (N = 3)",0 (0%)
same,Vomiting,"12 mg/3 W, QDx3d QW (N = 3)",0 (0%)
same,Asthenia,"12 mg/3 W, QDx3d QW (N = 3), 2nd Asthenia line",0 (0%)
same,ASTHENIA,15 mg/week (N = 3),0 (0%)
same,ATHENIA,15 mg/week (N = 3),0 (0%)
same,Alanine aminotransferase increased,15 mg/week (N = 3),0 (0%)
same,Aspartate aminotransferase increased,15 mg/week (N = 3),0 (0%)
